These compounds were tested on Phospholipidosis (assay: Literature-mined public compounds from Kruhlak et al phospholipidosis modelling dataset).
With NC[C@@H]1CC[C@@H](N)[C@@H](O[C@H]2[C@H](O)[C@@H](O[C@H]3O[C@H](CO)[C@@H](O)[C@H](N)[C@H]3O)[C@H](N)C[C@@H]2N)O1 [DIBEKACIN] the Phospholipidosis was “Positive: strong inducer confirmed by electron microscopy”.
Cc1cc(=O)n(-c2ccccc2)n1C.OC(O)C(Cl)(Cl)Cl.OC(O)C(Cl)(Cl)Cl [DICHLORALPHENAZONE] was tested, and the Phospholipidosis was “Negative: based on the absence of positive reported data from WMDD”.
In the case of NS(=O)(=O)c1cc(Cl)c(Cl)c(S(N)(=O)=O)c1 [DICHLORPHENAMIDE], the Phospholipidosis was “Negative: based on the absence of positive reported data from WMDD”.
For C[C@H]1O[C@@H](O[C@H]2[C@@H](O)C[C@H](O[C@H]3[C@@H](O)C[C@H](O[C@H]4CC[C@@]5(C)[C@H](CC[C@@H]6[C@@H]5C[C@@H](O)[C@]5(C)[C@@H](C7=CC(=O)OC7)CC[C@]65O)C4)O[C@@H]3C)O[C@@H]2C)C[C@H](O)[C@@H]1O [DIGOXIN], the Phospholipidosis was “Negative: based on the absence of positive reported data from WMDD”.
NNc1nnc(NN)c2ccccc12 [DIHYDRALAZINE] was tested, and the Phospholipidosis was “Negative: based on the absence of positive reported data from WMDD”.
CN(C)CCCN1c2ccccc2C(C)(C)c2ccccc21 [DIMETACRINE] was tested, and the Phospholipidosis was “Negative: based on the absence of positive reported data from WMDD”.
CCCCC[C@H](O)/C=C/[C@@H]1[C@@H](C/C=C\CCCC(=O)O)[C@@H](O)C[C@H]1O [DINOPROST] was tested, and the Phospholipidosis was “Negative: based on the absence of positive reported data from WMDD”.
With OC(CCCN1CCCCC1)(c1ccccc1)c1ccccc1 [DIPHENIDOL] the Phospholipidosis was “Negative: based on the absence of positive reported data from WMDD”.
CC(C)N(CCC(CCN1CCCCC1)(C(N)=O)c1ccccc1Cl)C(C)C (stereo not given) [DISOBUTAMIDE] was tested, and the Phospholipidosis was “Positive: strong inducer confirmed by electron microscopy”.
In the case of CC(C)N(CCC(C(N)=O)(c1ccccc1)c1ccccn1)C(C)C (stereo not given) [DISOPYRAMIDE], the Phospholipidosis was “Negative: based on the absence of positive reported data from WMDD”.
CCN(CC)C(=S)S [DITIOCARB] was tested, and the Phospholipidosis was “Negative: based on the absence of positive reported data from WMDD”.
COc1cc(CC2c3c(cc(OC)c(OC)c3OC)CC[N+]2(C)CCCOC(=O)CCC(=O)OCCC[N+]2(C)CCc3cc(OC)c(OC)c(OC)c3C2Cc2cc(OC)c(OC)c(OC)c2)cc(OC)c1OC.[Cl-].[Cl-] (stereo not given) [DOXACURIUM CHLORIDE] was tested, and the Phospholipidosis was “Negative: based on the absence of positive reported data from WMDD”.
Cn1c(=O)c2c(ncn2CC2OCCO2)n(C)c1=O [DOXOFYLLINE] was tested, and the Phospholipidosis was “Negative: based on the absence of positive reported data from WMDD”.
COc1cccc2c1C(=O)c1c(O)c3c(c(O)c1C2=O)C[C@@](O)(C(=O)CO)C[C@@H]3O[C@H]1C[C@H](N)[C@H](O)[C@H](C)O1 [DOXORUBICIN] was tested, and the Phospholipidosis was “Negative: confirmed by electron microscopy”.
CN(C)CCOC(C)(c1ccccc1)c1ccccn1 (stereo not given) [DOXYLAMINE] was tested, and the Phospholipidosis was “Negative: based on the absence of positive reported data from WMDD”.
For CCC(=O)O[C@H]1CC[C@H]2[C@@H]3CC[C@H]4CC(=O)[C@H](C)C[C@]4(C)[C@H]3CC[C@]12C [DROMOSTANOLONE PROPIONATE], the Phospholipidosis was “Negative: based on the absence of positive reported data from WMDD”.
In the case of Cn1c(=O)c2c(ncn2CC(O)CO)n(C)c1=O (stereo not given) [DYPHYLLINE], the Phospholipidosis was “Negative: based on the absence of positive reported data from WMDD”.
CC[C@H]1CN2CCc3cc(OC)c(OC)cc3[C@@H]2C[C@@H]1C[C@H]1NCCc2cc(OC)c(OC)cc21 [EMETINE] was tested, and the Phospholipidosis was “Positive: weak inducer based on presence of foamy macrophages and cytoplasmic vacuolations”.
With CN[C@@H](C)[C@H](O)c1ccccc1 [EPHEDRINE] the Phospholipidosis was “Negative: based on the absence of positive reported data from WMDD”.
With CNC[C@H](O)c1ccc(O)c(O)c1 [EPINEPHRINE] the Phospholipidosis was “Negative: based on the absence of positive reported data from WMDD”.
In the case of COc1cccc2c1C(=O)c1c(O)c3c(c(O)c1C2=O)C[C@@](O)(C(=O)CO)C[C@@H]3O[C@H]1C[C@H](N)[C@@H](O)[C@H](C)O1 [EPIRUBICIN], the Phospholipidosis was “Negative: based on the absence of positive reported data from WMDD”.
In the case of CCCCC[C@H](O)/C=C/[C@@H]1[C@H]2C/C(=C/CCCC(=O)O)O[C@H]2C[C@H]1O [EPOPROSTENOL], the Phospholipidosis was “Negative: based on the absence of positive reported data from WMDD”.
In the case of CCCCc1ncc(/C=C(\Cc2cccs2)C(=O)O)n1Cc1ccc(C(=O)O)cc1 [EPROSARTAN], the Phospholipidosis was “Negative: based on the absence of positive reported data from WMDD”.
COC(=O)CCc1ccc(OCC(O)CNC(C)C)cc1 (stereo not given) [ESMOLOL] was tested, and the Phospholipidosis was “Negative: based on the absence of positive reported data from WMDD”.
CCC(=O)Oc1ccc2c(c1)CC[C@@H]1[C@@H]2CC[C@]2(C)[C@@H](OC(=O)CC)CC[C@@H]12 [ESTRADIOL DIPROPIONATE] was tested, and the Phospholipidosis was “Negative: based on the absence of positive reported data from WMDD”.
CCCCCCCCCCC(=O)O[C@H]1CC[C@H]2[C@@H]3CCc4cc(O)ccc4[C@H]3CC[C@]12C [ESTRADIOL UNDECYLATE] was tested, and the Phospholipidosis was “Negative: based on the absence of positive reported data from WMDD”.
For C1CNCCN1.C[C@]12CC[C@@H]3c4ccc(OS(=O)(=O)O)cc4CC[C@H]3[C@@H]1CCC2=O [ESTROPIPATE], the Phospholipidosis was “Negative: based on the absence of positive reported data from WMDD”.
In the case of C#CC(O)(/C=C/Cl)CC (stereo not given) [ETHCHLORVYNOL], the Phospholipidosis was “Negative: based on the absence of positive reported data from WMDD”.
C#C[C@]1(O)CC[C@H]2[C@@H]3CCc4cc(O)ccc4[C@H]3CC[C@@]21C [ETHINYL ESTRADIOL] was tested, and the Phospholipidosis was “Negative: based on the absence of positive reported data from WMDD”.
In the case of CCN(CC)C(C)CN1c2ccccc2Sc2ccccc21 (stereo not given) [ETHOPROPAZINE], the Phospholipidosis was “Negative: based on the absence of positive reported data from WMDD”.
For CCOC(=O)C1N=C(c2ccccc2F)c2cc(Cl)ccc2NC1=O (stereo not given) [ETHYL LOFLAZEPATE], the Phospholipidosis was “Positive: strong inducer confirmed by electron microscopy”.
CCCN(CC)C(CC)C(=O)Nc1c(C)cccc1C (stereo not given) [ETIDOCAINE] was tested, and the Phospholipidosis was “Negative: based on the absence of positive reported data from WMDD”.
In the case of CCc1cc2c(s1)-n1c(C)nnc1CN=C2c1ccccc1Cl [ETIZOLAM], the Phospholipidosis was “Negative: based on the absence of positive reported data from WMDD”.
In the case of CCOC(=O)c1cncn1[C@H](C)c1ccccc1 [ETOMIDATE], the Phospholipidosis was “Negative: based on the absence of positive reported data from WMDD”.
In the case of COc1cc([C@@H]2c3cc4c(cc3[C@@H](O[C@@H]3O[C@@H]5CO[C@@H](C)O[C@H]5[C@H](O)[C@H]3O)[C@H]3COC(=O)[C@H]23)OCO4)cc(OC)c1O [ETOPOSIDE], the Phospholipidosis was “Negative: confirmed by electron microscopy”.
With CCOC(=O)/C=C(C)/C=C/C=C(C)/C=C/c1c(C)cc(OC)c(C)c1C [ETRETINATE] the Phospholipidosis was “Negative: based on the absence of positive reported data from WMDD”.
For Cc1cc(-c2ccc(/N=N/c3ccc4c(S(=O)(=O)[O-])cc(S(=O)(=O)[O-])c(N)c4c3O)c(C)c2)ccc1/N=N/c1ccc2c(S(=O)(=O)[O-])cc(S(=O)(=O)[O-])c(N)c2c1O.[Na+].[Na+].[Na+].[Na+] [EVANS BLUE], the Phospholipidosis was “Negative: based on the absence of positive reported data from WMDD”.
CC(=O)OCC(CCn1cnc2cnc(N)nc21)COC(C)=O [FAMCICLOVIR] was tested, and the Phospholipidosis was “Negative: based on the absence of positive reported data from WMDD”.
In the case of Cc1c(-c2ccccc2)n(/N=N/n2c(-c3ccccc3)c(C)[n+]3ccccc23)c2cccc[n+]12.[Br-].[Br-] [FAZADINIUM BROMIDE], the Phospholipidosis was “Negative: based on the absence of positive reported data from WMDD”.
For CCNC(C)Cc1cccc(C(F)(F)F)c1 (stereo not given) [FENFLURAMINE], the Phospholipidosis was “Positive: strong inducer confirmed by electron microscopy”.
With CC(C(=O)O)c1cccc(Oc2ccccc2)c1 (stereo not given) [FENOPROFEN] the Phospholipidosis was “Negative: based on the absence of positive reported data from WMDD”.
For CC(C)=CCC1C(=O)N(c2ccccc2)N(c2ccccc2)C1=O [FEPRAZONE], the Phospholipidosis was “Negative: based on the absence of positive reported data from WMDD”.
In the case of Cc1c(-c2ccccc2)oc2c(C(=O)OCCN3CCCCC3)cccc2c1=O [FLAVOXATE], the Phospholipidosis was “Negative: based on the absence of positive reported data from WMDD”.
For O=C(NCC1CCCCN1)c1cc(OCC(F)(F)F)ccc1OCC(F)(F)F (stereo not given) [FLECAINIDE], the Phospholipidosis was “Negative: confirmed by electron microscopy”.
In the case of Cc1onc(-c2c(F)cccc2Cl)c1C(=O)N[C@@H]1C(=O)N2[C@@H]1SC(C)(C)[C@@H]2C(=O)O [FLOXACILLIN], the Phospholipidosis was “Negative: based on the absence of positive reported data from WMDD”.
With O=c1[nH]c(=O)n([C@H]2C[C@H](O)[C@@H](CO)O2)cc1F [FLOXURIDINE] the Phospholipidosis was “Negative: based on the absence of positive reported data from WMDD”.
For Nc1nc(=O)[nH]cc1F [FLUCYTOSINE], the Phospholipidosis was “Negative: based on the absence of positive reported data from WMDD”.
In the case of Nc1nc(F)nc2c1ncn2[C@@H]1O[C@H](COP(=O)(O)O)[C@@H](O)[C@@H]1O [FLUDARABINE PHOSPHATE], the Phospholipidosis was “Negative: based on the absence of positive reported data from WMDD”.
For O=C(O)c1ccccc1Nc1cccc(C(F)(F)F)c1 [FLUFENAMIC ACID], the Phospholipidosis was “Negative: based on the absence of positive reported data from WMDD”.
O=c1[nH]cc(F)c(=O)[nH]1 [FLUOROURACIL] was tested, and the Phospholipidosis was “Negative: based on the absence of positive reported data from WMDD”.
With CNCCC(Oc1ccc(C(F)(F)F)cc1)c1ccccc1 (stereo not given) [FLUOXETINE] the Phospholipidosis was “Positive: strong inducer confirmed by electron microscopy”.
With CCCCCCCCCC(=O)OCCN1CCN(CCCN2c3ccccc3Sc3ccc(C(F)(F)F)cc32)CC1 [FLUPHENAZINE DECANOATE] the Phospholipidosis was “Negative: based on the absence of positive reported data from WMDD”.
With CCCCCCC(=O)OCCN1CCN(CCCN2c3ccccc3Sc3ccc(C(F)(F)F)cc32)CC1 [FLUPHENAZINE ENANTHATE] the Phospholipidosis was “Negative: based on the absence of positive reported data from WMDD”.
In the case of CCN(CC)CCN1C(=O)CN=C(c2ccccc2F)c2cc(Cl)ccc21 [FLURAZEPAM], the Phospholipidosis was “Negative: based on the absence of positive reported data from WMDD”.
For O=C1CN2CCOC2(c2ccccc2F)c2cc(Cl)ccc2N1CCO (stereo not given) [FLUTAZOLAM], the Phospholipidosis was “Negative: based on the absence of positive reported data from WMDD”.
